Measured values: PubChem BioAssay AID463251 (The Scripps Research Institute Molecular Screening Center, 2010)
Active and inactive are the calls of the source. No cut-off is given here; in the data, nearly all actives have IC50 up to about 7.3 µM.

Target: Neuropeptides B/W receptor type 1 (Homo sapiens) (UniProt P48145)
Experiment: GPR7 antagonist potency, late-stage follow-up, cell-based, fluorescence, dose response (AID 463251)
Conditions: GPR7-expressing cells, fluorescence read-out, antagonist mode

Chain of Neuropeptides B/W receptor type 1 (Homo sapiens) (P48145 whole entry, looked up): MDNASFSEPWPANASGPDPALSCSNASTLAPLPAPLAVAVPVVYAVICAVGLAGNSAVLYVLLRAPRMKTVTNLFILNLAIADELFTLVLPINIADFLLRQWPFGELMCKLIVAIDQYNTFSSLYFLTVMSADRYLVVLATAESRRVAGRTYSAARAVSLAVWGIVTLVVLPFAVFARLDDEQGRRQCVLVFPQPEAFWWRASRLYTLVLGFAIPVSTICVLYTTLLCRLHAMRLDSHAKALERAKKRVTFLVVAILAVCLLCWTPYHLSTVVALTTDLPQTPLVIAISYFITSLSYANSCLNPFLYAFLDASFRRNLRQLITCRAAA

Compound	IC50	inhibition (at 20 µM (top of the series))
COc1ccc(Oc2c(C3CC3)cnn(-c3ccc(C)cc3)c2=O)cc1	6.2 µM	–
CCOc1ccc(Oc2c(Br)cnn(-c3ccc(C(C)C)cc3)c2=O)cc1	0.724 µM	–
CCOC(=O)c1ccc(-n2ncc(Cl)c(Oc3ccc(OC)cc3)c2=O)cc1	1.2 µM	–
COc1ccc(Oc2c(Cl)cnn(-c3ccc(C)cc3)c2=O)cc1	2.2 µM	–
COc1ccc(Oc2c(Cl)cnn(Cc3ccc(C)cc3)c2=O)cc1	1.7 µM	–
C=Cc1cnn(-c2ccc(C(C)C)cc2)c(=O)c1Oc1ccc(OC)cc1	2.4 µM	–
COC(=O)c1cnn(-c2ccc(C(C)C)cc2)c(=O)c1Oc1ccc(OC)cc1	2.7 µM	–
COc1ccc(Oc2c(C)cnn(-c3ccc(C(C)C)cc3)c2=O)cc1	7.5 µM	–
O=C(C1CCCCN1Cc1ccccc1)N1CCN(c2ccc([N+](=O)[O-])cc2)CC1 (configuration not stated)	–	inactive
COc1ccc(Oc2c(Cl)cnn(-c3cccc(C)c3C)c2=O)cc1	1.3 µM	–
COc1ccc(Oc2c(Cl)cnn(-c3cc(C)ccc3C)c2=O)cc1	1.4 µM	–
Cc1ccc(-n2ncc(Cl)c(Oc3ccc(CO)cc3)c2=O)cc1	2.3 µM	–
COc1ccc(Oc2c(CO)cnn(-c3ccc(C(C)C)cc3)c2=O)cc1	5.6 µM	–
CC(C)c1ccc(-n2ncc(Cl)c(Oc3ccc(OC(F)(F)F)cc3)c2=O)cc1	inactive	–
COc1ccc(Oc2c(C=O)cnn(-c3ccc(C(C)C)cc3)c2=O)cc1	6.2 µM	–
COc1ccc(Oc2c(C#N)cnn(-c3ccc(C(C)C)cc3)c2=O)cc1	4.2 µM	–
